Assay results as given in patent US20210349077A1, “Method of quantifying induced membrane permeability and of screening compounds able to prevent said permeability” (Zarbio, priority 2020, published 2021).

Columns and labels:
[1] = Flow cytometric calcium permeabilization of phosphatidylserine liposomes (DiD membrane probe, Fluo-3 calcium probe); assay type: biochemical; conditions: for channel formation / permeabilization of membranes to calcium: summary statement, FIG. 10 and 12; for permeability of liposomes to calcium: peptide stock in DMSO, final concentration 10 μM
Excerpt: (§1) Unilamellar liposomes are created with Fluo-3 membrane-impermeant fluorescent dye sensitive to the concentration of calcium (an example of ion sensitive probe, ISP, at the FIG. 2). The buffer for the created liposomes is calcium-free, and can contain calcium-chelating agents, such as EGTA or EDTA. Both calcium-free and calcium-bound Fluo-3 effectively absorb light with wavelength of 488 nm (one of typical lasers used in flow cytometers, blue light). […] Measuring the fluorescence at 520 nm allows to distinguish the liposomes which contain free calcium and those which are impermeant to calcium.
(§2) To identify liposomes in the flow, lipids can be supplemented with a lipophilic dye such as 1,1′-dioctadecyl-3,3,3′,3′-tetramethylindodicarbocyanine (DiD), which serves as membrane probe (MP at the FIG. 2). […] However, after ion channels are formed in the particular liposome, the electrolytes are equilibrated between inside and outside of the liposome. Therefore, due to the presence of calcium outside, the liposomes with the channels will have high free calcium, so Fluo-3 will have intensive fluorescence.
(§3) In the flow cytometer, the appearance of channels is visible as increasing proportion of calcium-loaded liposomes compared with calcium-free liposomes. When every liposome becomes permeant to calcium, all liposomes will be presented as loaded with calcium. This condition is used for normalization and can be achieved in control experiments by the addition of calcium ionophore such as ionomycin.
Liposomes (400 nm) were made of phosphatidylserine with DiD and were extruded in the buffer without (A-C) or with (D-I) 1 mM Fluo-3. […] Liposomes with membrane but without calcium-sensitive probe in the presence of calcium. • D, E, F (Second row). Liposomes with both membrane and calcium-sensitive probe in the presence of calcium. • G, H, I (Third row). Liposomes with both membrane and calcium-sensitive probe in the absence of calcium. • A, D, G (First column). Liposomes only. • B, E, H (Second column). Liposomes with added 5 μM Aβ25-35. • C, F, I (Third column). Liposomes with added 5 μM Aβ25-35 followed by ionomycin.
Liposomes made of phosphatidylserine and contained both DiD and Fluo-3. In a calcium-containing medium, membranes are not permeant to calcium, so there is a minimal number of liposomes with increased levels of green fluorescence (A). […] Increasing concentration of amyloid peptide increases the number of permeant liposomes (C, D).
This figure summarizes data from experiments, described at the FIG. 10. Liposomes made of phosphatidylserine and contained both DiD and Fluo-3 were treated by various concentrations of Aβ25-35. For the treatment, the same stock solution of peptide in distilled water was added to the suspension of liposomes in a calcium-containing medium. The gate to count the number of permeabilized vesicles is shown at the density plot (left graph).
Phosphatidylserine liposomes were prepared to contain both DiD and Fluo-3 as described for previous figures. Liposomes were tested to be permeabilized by Aβ25-35. • A. Control PS liposomes with calcium (60 μM). Limited number of events is registered in the area corresponding to permeabilized vesicles. • B. Effect of Aβ1-42 (8 μM). […] Effect of ionomycin (50 nM, positive control).
In this experiment, stock solution of peptides was prepared in DMSO to extend the testing to the peptide which are not soluble in water-based excipients. […] There is no difference between the effects of the peptide that was dissolved initially in DMSO (“Lip+Pep/DMSO”) and water (not shown here). • C.
The permeabilization to calcium ions will be described first as an example. To detect calcium transmembrane transfer, calcium-sensitive probes are used, such as Fluo-3 or Fluo-4 which dramatically increase their fluorescence upon binding calcium. Liposomes are formed in a calcium-free medium containing calcium-sensitive probe. […]

[2] = Flow cytometric fluorescence test of phosphatidylcholine liposomes (DiD, Fluo-3); assay type: biochemical
Excerpt: as §1, §2, §3
Liposomes (400 nm) were made of phosphatidylcholine with DiD and were extruded in the buffer containing 1 mM Fluo-3 (A-H) or without Fluo-3 (I, J).
The effect of Aβ25-35 was the same in calcium-free medium with EGTA (F,G).

Question: With `C[C@H](CCC(=O)O)C[C@H](C)C[C@H](C)C(=O)/C=C(\O)[C@H](C)C[C@H](C)C/C=C/[C@@H](C)[C@@H](O)[C@@H](C)[C@@H](O)C[C@@H]1CC[C@@](C)([C@H]2CC[C@@](C)([C@@H](C)O)O2)O1` [ionomycin] as the compound, how does the “permeabilization of liposomes (positive control)” value ([1]; 50 nM, calcium 60 μM) read?
Answer: permeabilizes all liposomes

Question: What about the “effect of ionomycin added following 5 μM Aβ25-35” value ([1]; DiD-only vesicles and in the absence of calcium) of the same compound?
Answer: did not produce any effect

Question: What about the “Fluo-3 signal after ionomycin added following 5 μM Aβ25-35” value ([1]; liposomes with Fluo-3, calcium present) of the same compound?
Answer: did not further increase the Fluo-3 signal from vesicles with low DiD signal but additionally shifted upwards the part of the distribution with high DiD signal

Question: What about the “fluorescence after ionophore addition” value ([2]; liposomes with 1 mM Fluo-3, calcium present) of the same compound?
Answer: significantly increased fluorescence

Question: For Aβ1-42: full-length amyloid peptide, which “number of events in the area corresponding to permeabilized vesicles” value ([1]; 8 μM peptide, calcium 60 μM, compared with control) is on record?
Answer: does not exceed same number observed in control experiment

Question: What about the “channel formation / permeabilization of membranes to calcium” value [1] of the same compound?
Answer: does not create channels permeabilizing membranes to calcium

Question: For “Aβ31-35: amyloid-beta peptide fragment tested at 10 μM from DMSO stock (IIGLM; Amyloid-beta protein 42; UniProt P05067 702-706, looked up, fragment)”, which “permeability of liposomes to calcium” value [1] is on record?
Answer: did not affect the permeability of liposomes

Question: What does the source list for “Aβ25-35: short fragment of beta-amyloid peptide that forms membrane channels (GSNKGAIIGLM; Amyloid-beta protein 42; UniProt P05067 696-706, looked up, fragment)”?
Answer: time for effects of the peptide to develop after addition to liposomes [1]: within the first minute; liposomes made permeant to calcium ([1]; 2 μM peptide, calcium-containing medium): makes some of liposomes permeant to calcium; green (Fluo-3) signal from vesicles ([1]; 5 μM peptide, 400 nm liposomes with 1 mM Fluo-3, extravesicular calcium present): increased green signal from vesicles only in the presence of both Fluo-3 and calcium; green signal from vesicles ([1]; 5 μM peptide, DiD-only liposomes or calcium-free buffer (EGTA)): did not have effect; change in number of permeabilized liposomes on prolonged incubation ([1]; incubation with the peptide for up to one hour): does not change the number of permeabilized liposomes; permeability of liposomes to calcium [1]: permeabilized liposomes; liposomes of total number that become permeant to calcium ([1]; phosphatidylserine liposomes, various conditions (FIG. 11)): up to 10%; channel formation / permeabilization of membranes to calcium [1]: efficiently permeabilize multiple liposomes; dependence of number of permeabilized liposomes on amount of added peptide ([1]; various concentrations, stock in distilled water, calcium-containing medium): linearly dependent on the amount of added peptide; effect on green signal compared with calcium-containing medium ([2]; calcium-free medium with EGTA): the same; green signal from vesicles ([2]; concentrations above 10 μM (20 μM, 50 μM), 400 nm liposomes with 1 mM Fluo-3, calcium present): slightly but reproducibly increased green signal from vesicles; shift of green fluorescence distribution ([2]; liposomes extruded without Fluo-3): still shifted the distribution upward
